From the kinase profiling compilation of Christmann-Franck et al. (2016) come the findings set out here.

What all share (assay): KINOMEscan competition binding
Common to all, as to conditions: compound 10.0 µM

The subject of assay [1] is BMX (human), P51813 [V600E].
In assay [2] the test system is EGFR (human), P00533 [A750P; 747-749 del].
The subject of assay [3] is EGFR (human), P00533 [G719C].
In assay [4] the test system is EGFR (human), P00533 [L858R].
Assay [5] relates to FGFR3 (human), P22607 [G697C].
Assay [6] concerns FLT3 (human), P36888 [D835Y].
Assay [7] deals with KIT (human), P10721 [A829P].
Assay [8] relates to KIT (human), P10721 [D816H].
For assay [9], the system named is LRRK2 (human), Q5S007 [G2019S].
Assay [10] has as its system MET (human), P08581 [M1250T].
Assay [11] deals with PIK3CA (human), P42336 [E542K].
The subject of assay [12] is PIK3CA (human), P42336 [H1047L].
The subject of assay [13] is PIK3CA (human), P42336 [M1043I].
In assay [14] the test system is RET (human), P07949 [V804L].
RET (human), P07949 [V804L], sequence (P07949 whole entry V804L, looked up): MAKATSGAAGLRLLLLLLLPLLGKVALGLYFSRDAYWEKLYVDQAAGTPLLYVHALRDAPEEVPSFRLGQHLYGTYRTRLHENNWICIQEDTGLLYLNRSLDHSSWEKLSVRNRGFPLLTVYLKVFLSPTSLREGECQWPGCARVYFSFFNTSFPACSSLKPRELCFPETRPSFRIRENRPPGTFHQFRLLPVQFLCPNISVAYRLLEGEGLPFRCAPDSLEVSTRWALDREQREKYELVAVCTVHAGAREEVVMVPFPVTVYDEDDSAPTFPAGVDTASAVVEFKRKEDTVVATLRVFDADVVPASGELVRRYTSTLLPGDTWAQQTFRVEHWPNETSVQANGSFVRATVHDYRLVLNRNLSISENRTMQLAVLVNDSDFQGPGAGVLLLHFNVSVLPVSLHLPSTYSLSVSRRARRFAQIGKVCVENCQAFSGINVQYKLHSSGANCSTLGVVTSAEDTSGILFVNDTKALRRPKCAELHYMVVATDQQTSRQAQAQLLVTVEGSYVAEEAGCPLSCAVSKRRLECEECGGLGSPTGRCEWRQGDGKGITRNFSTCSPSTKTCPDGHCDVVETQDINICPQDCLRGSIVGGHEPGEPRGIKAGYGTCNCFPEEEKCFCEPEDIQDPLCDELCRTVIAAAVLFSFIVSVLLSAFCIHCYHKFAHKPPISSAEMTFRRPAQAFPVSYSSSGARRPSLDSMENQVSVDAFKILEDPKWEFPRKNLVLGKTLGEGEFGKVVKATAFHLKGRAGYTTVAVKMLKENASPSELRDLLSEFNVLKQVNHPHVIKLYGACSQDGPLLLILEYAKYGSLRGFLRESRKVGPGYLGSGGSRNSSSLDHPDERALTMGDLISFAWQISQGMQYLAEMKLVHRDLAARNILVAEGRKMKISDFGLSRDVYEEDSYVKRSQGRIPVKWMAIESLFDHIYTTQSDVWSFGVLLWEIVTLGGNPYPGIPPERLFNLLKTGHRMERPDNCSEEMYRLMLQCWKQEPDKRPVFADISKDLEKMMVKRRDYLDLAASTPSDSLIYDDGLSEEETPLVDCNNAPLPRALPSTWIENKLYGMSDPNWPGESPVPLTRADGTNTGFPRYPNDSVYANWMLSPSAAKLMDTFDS

BMX (human), P51813 [V600E], sequence (P51813 whole entry, looked up, stated change not applied): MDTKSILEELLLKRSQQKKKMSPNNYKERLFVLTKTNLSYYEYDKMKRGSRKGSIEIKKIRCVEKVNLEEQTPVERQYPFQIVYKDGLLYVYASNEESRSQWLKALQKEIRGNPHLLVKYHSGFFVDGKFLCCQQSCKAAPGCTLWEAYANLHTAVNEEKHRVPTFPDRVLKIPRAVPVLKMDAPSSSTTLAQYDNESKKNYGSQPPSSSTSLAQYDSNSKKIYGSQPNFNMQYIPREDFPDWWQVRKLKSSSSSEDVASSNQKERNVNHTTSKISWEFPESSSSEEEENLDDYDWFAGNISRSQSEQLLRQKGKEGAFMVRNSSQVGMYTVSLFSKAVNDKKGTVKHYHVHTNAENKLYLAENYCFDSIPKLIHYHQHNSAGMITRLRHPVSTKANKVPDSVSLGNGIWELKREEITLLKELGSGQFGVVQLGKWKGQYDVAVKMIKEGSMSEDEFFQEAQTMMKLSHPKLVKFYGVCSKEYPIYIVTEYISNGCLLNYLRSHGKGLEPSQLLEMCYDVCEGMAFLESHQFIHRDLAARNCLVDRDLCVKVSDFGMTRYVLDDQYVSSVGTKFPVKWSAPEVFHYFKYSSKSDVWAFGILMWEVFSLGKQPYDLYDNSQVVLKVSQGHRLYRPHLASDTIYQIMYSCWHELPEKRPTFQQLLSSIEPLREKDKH
KIT (human), P10721 [A829P], sequence (P10721 whole entry A829P, looked up): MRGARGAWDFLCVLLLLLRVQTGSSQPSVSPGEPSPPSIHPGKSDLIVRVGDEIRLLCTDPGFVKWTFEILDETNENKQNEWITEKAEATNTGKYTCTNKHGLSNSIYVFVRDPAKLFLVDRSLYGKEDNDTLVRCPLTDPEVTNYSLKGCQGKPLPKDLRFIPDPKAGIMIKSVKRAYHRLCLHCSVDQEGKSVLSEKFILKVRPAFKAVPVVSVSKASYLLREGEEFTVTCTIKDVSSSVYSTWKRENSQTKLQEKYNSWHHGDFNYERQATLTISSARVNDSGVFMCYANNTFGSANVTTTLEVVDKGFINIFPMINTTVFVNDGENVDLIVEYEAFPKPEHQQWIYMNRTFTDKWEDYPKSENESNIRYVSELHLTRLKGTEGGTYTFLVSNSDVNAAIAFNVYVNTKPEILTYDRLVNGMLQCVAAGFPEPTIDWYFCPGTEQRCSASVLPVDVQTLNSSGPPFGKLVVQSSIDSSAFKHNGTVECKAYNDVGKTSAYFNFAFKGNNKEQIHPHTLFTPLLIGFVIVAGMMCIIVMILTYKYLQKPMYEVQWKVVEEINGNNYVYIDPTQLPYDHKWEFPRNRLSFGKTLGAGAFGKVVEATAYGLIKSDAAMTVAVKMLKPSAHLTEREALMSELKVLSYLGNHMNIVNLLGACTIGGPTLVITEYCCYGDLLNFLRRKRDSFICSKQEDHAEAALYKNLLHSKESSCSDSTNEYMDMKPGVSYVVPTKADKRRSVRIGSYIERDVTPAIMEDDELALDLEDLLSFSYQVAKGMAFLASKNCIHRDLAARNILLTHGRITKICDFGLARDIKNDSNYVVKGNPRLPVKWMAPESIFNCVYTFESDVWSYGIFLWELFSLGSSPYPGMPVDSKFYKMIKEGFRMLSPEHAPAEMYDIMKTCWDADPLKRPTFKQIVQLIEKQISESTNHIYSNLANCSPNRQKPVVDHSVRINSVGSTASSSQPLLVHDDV
PIK3CA (human), P42336 [M1043I], sequence (P42336 whole entry M1043I, looked up): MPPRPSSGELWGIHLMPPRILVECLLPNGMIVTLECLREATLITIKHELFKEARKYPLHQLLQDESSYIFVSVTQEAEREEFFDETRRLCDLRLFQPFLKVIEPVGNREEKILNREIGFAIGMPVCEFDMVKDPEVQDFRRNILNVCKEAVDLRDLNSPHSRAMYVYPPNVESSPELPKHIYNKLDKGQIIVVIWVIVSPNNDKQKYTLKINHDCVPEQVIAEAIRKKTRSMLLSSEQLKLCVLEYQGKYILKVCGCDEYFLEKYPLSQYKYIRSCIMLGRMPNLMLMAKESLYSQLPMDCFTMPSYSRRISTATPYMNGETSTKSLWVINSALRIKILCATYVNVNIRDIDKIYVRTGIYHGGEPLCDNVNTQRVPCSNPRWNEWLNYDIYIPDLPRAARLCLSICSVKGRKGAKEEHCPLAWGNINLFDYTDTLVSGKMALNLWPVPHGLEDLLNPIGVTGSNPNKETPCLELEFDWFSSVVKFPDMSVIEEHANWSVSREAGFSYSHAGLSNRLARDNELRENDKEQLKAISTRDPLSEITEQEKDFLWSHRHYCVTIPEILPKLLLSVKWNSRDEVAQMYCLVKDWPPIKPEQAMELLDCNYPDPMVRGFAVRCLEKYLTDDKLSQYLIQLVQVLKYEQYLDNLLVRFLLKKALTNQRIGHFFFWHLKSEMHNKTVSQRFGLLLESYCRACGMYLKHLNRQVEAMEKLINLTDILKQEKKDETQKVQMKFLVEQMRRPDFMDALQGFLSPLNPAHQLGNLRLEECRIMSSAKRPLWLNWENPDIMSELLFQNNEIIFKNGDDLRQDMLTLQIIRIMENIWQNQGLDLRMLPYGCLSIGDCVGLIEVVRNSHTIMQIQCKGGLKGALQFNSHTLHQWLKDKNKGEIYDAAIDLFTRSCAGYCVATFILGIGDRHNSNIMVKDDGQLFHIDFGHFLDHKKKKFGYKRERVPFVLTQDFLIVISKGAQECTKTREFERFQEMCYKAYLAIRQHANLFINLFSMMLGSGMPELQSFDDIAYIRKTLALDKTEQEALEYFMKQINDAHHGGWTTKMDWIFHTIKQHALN
PIK3CA (human), P42336 [E542K], sequence (P42336 whole entry E542K, looked up): as the sequence (P42336 whole entry M1043I, looked up) above, with E542K, I1043M counted along it
FGFR3 (human), P22607 [G697C], sequence (P22607 whole entry G697C, looked up): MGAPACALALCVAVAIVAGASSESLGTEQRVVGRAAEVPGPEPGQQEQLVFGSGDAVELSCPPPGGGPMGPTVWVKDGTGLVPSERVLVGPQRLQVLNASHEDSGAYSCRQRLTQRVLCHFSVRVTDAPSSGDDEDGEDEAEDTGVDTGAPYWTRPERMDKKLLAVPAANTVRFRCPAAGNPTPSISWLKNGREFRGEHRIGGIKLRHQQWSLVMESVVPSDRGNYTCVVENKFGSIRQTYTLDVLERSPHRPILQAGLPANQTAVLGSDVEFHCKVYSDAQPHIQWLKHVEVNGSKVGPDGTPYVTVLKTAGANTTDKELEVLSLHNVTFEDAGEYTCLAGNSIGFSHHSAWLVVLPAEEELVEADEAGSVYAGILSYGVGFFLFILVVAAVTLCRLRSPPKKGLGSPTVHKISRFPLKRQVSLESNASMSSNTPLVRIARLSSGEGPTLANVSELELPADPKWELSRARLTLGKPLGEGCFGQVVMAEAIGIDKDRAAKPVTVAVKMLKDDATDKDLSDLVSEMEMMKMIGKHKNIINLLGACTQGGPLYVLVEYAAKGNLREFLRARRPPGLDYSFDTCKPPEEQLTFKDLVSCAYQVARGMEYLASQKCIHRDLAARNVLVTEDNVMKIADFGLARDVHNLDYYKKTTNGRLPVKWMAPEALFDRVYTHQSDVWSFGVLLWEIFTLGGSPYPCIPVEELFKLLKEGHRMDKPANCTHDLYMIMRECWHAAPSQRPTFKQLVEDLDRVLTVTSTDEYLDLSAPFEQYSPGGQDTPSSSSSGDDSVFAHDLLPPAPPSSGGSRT
KIT (human), P10721 [D816H], sequence (P10721 whole entry D816H, looked up): as the sequence (P10721 whole entry A829P, looked up) above, with D816H, P829A counted along it
PIK3CA (human), P42336 [H1047L], sequence (P42336 whole entry H1047L, looked up): as the sequence (P42336 whole entry M1043I, looked up) above, with I1043M, H1047L counted along it

In the case of `O=C(Nc1cccc(Nc2ncc(Br)c(NCCc3cnc[nH]3)n2)c1)N1CCCC1`, the kinase still bound, per cent of control was determined as 62% in assay [1]; 41% in assay [2]; 24% in assay [3]; 65% in [4]; 0.8% in [5]; 0.1% in assay [6]. For the same compound, the kinase still bound, per cent of control is 28% in assay [7]; 11% in assay [8]; 8.4% in assay [9]; 4.6% in [10]; 100% in [11]; 59% in assay [12]. In addition, the kinase still bound, per cent of control in assay [13] was 95%; in assay [14] it was 0.15%.
Consider `C[C@@H](Oc1cc(-n2cnc3ccc(CN4CCN(C)CC4)cc32)sc1C(N)=O)c1ccccc1C(F)(F)F`, for which the kinase still bound, per cent of control in assay [1] was 58%; in [2] it was 81%; in [3], 100%; in assay [4], 86%; in assay [5] it was 75%; in assay [6] it was 21%. Besides, the kinase still bound, per cent of control was 29% in [7]; 40% in [8]; 40% in [9]; 93% in assay [10]; 91% in assay [11]; 16% in assay [12]. The kinase still bound, per cent of control was found to be 63% in assay [13] and 100% in assay [14].
As to `CCN1CCN(Cc2ccc(Nc3ncc4c(n3)N(C)c3ccccc3C(=O)N4C)cc2C(F)(F)F)CC1`, the kinase still bound, per cent of control was determined as 100% in [1]; 79% in assay [2]; 89% in assay [3]; 76% in assay [4]; 31% in assay [5]; 3.5% in assay [6]. Further, the kinase still bound, per cent of control was determined as 59% in [7]; 65% in assay [8]; 18% in assay [9]; 71% in assay [10]; 24% in assay [11]; 1.8% in assay [12]. Also, the figures for the kinase still bound, per cent of control in assay [13] and in assay [14] were 15% and 0.9%, respectively.
In the case of `CN(C)C/C=C/C(=O)Nc1ccc(C(=O)Nc2cccc(Nc3nccc(-c4cccnc4)n3)c2)cc1`, the kinase still bound, per cent of control in assay [1] was found to be 63%; in [2] it was 100%; in assay [3], 83%; in [4], 99%; in assay [5] it was 84%; in assay [6] it was 18%. In addition, the kinase still bound, per cent of control in assay [7] amounted to 64%; in assay [8], 51%; in assay [9] it was 76%; in [10] it was 100%; in assay [11], 100%; in [12], 100%. Also, the values for the kinase still bound, per cent of control in assay [13] and in assay [14] were 100% and 84%, respectively.
On to `C=CC(=O)Nc1cc(NC(=O)c2ccc(C)c(NC(=O)c3ccno3)c2)cc(C(F)(F)F)c1`, for which the kinase still bound, per cent of control stood at 19% in assay [1]; 100% in assay [2]; 94% in assay [3]; 100% in assay [4]; 91% in assay [5]; 100% in [6]. For the same compound, the kinase still bound, per cent of control in assay [7] worked out at 54%; in assay [8] it was 75%; in [9], 85%; in assay [10], 86%; in assay [11], 88%; in assay [12], 73%. Further, the kinase still bound, per cent of control in assay [13] turned out to be 93%; in assay [14], 100%.
Regarding `COc1cc(C(=O)N2CCC(N3CCN(C)CC3)CC2)ccc1Nc1ncc2c(n1)N(C)c1ccccc1C(=O)N2C`, the kinase still bound, per cent of control in assay [1] amounted to 100%; in [2] it was 78%; in assay [3] it was 100%; in [4] it was 79%; in [5] it was 85%; in assay [6], 100%. In addition, the kinase still bound, per cent of control in [7] stood at 100%; in assay [8] it was 100%; in assay [9], 5%; in assay [10], 96%; in assay [11] it was 77%; in assay [12], 20%. The kinase still bound, per cent of control in [13] was 65%; in [14] it was 89%.
On to `C=CC(=O)Nc1cc(-n2c(=O)ccc3cnc4ccc(-c5cn[nH]c5)cc4c32)ccc1C`, for which the kinase still bound, per cent of control in assay [1] stood at 91%; in assay [2] it was 26%; in assay [3] it was 100%; in assay [4] it was 41%; in assay [5], 74%; in assay [6], 1.2%. For the same compound, the kinase still bound, per cent of control amounted to 36% in assay [7]; 14% in assay [8]; 6.4% in assay [9]; 80% in assay [10]; 20% in assay [11]; 4.6% in assay [12]. Besides, the kinase still bound, per cent of control in [13] came out at 15%; in assay [14], 79%.
Take `COc1cc2ncnc(-n3nc(-c4ccccn4)nc3N)c2cc1OC`: the kinase still bound, per cent of control in [1] turned out to be 23%; in assay [2], 44%; in assay [3], 24%; in assay [4], 55%; in [5] it was 100%; in assay [6], 3.4%. Further, the kinase still bound, per cent of control was 33% in assay [7]; 12% in [8]; 41% in assay [9]; 44% in [10]; 48% in assay [11]; 17% in assay [12]. For the same compound, the figures for the kinase still bound, per cent of control in assay [13] and in [14] were 36% and 54%, respectively.
On to `COc1ccc(N(C(=O)Oc2c(C)cccc2C)c2ccnc(Nc3ccc(N4CCN(C)CC4)cc3)n2)c(OC)c1`, for which the kinase still bound, per cent of control turned out to be 38% in [1]; 1% in assay [2]; 0.25% in assay [3]; 0% in assay [4]; 2.6% in [5]; 5.2% in assay [6]. In addition, the kinase still bound, per cent of control in assay [7] was determined as 56%; in [8], 44%; in [9] it was 84%; in [10], 5.4%; in assay [11], 100%; in assay [12], 100%. For the same compound, the kinase still bound, per cent of control in assay [13] amounted to 99%; in [14], 85%.
With `O=C(NC1CC1)c1cccc(-c2ccc3c(NC(=O)C4CC4)n[nH]c3c2)c1`, the kinase still bound, per cent of control in assay [1] came out at 65%; in assay [2] it was 82%; in [3], 73%; in assay [4], 93%; in assay [5] it was 100%; in assay [6], 15%. The kinase still bound, per cent of control in [7] is 76%; in assay [8], 75%; in [9], 87%; in [10], 73%; in [11], 100%; in assay [12], 98%. Besides, the kinase still bound, per cent of control in assay [13] came to 92%; in assay [14], 96%.
